From US8802597B2, “Herbicidal pyrimidines” (E I du Pont de Nemours and Company, priority 2003, dated 2014)

Tests used:
Assay in all cases: Test C pre/postemergence
Type in all cases: in vivo
[1] = test system: velvetleaf (Abutilon theophrasti); settings: Abutilon theophrasti, post-emergence, Postemergence
In short: (§1)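 Greenhouse herbicide screen, visual readout. Compound in solvent/surfactant applied preemergence at planting or postemergence to 1- to 4-leaf plants; assessed at 12–14 days on a 0–100 control scale.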

kochia (Kochia scoparia) = settings: Bassia scoparia, post-emergence, Postemergence
In short: as §1

[2] = test system: crabgrass (Digitaria sanguinalis); settings: Digitaria sanguinalis, post-emergence, Postemergence
In short: as §1

[3] = test system: woolly cupgrass (Eriochloa villosa); settings: Eriochloa villosa, post-emergence, Postemergence
In short: as §1

[4] = test system: morningglory (Ipomoea coccinea); settings: Ipomoea, post-emergence, Postemergence
In short: as §1

[5] = test system: giant foxtail (Setaria faberii); settings: Setaria faberi, post-emergence, Postemergence
In short: as §1

[6] = test system: yellow nutsedge (Cyperus esculentus); settings: Cyperus, post-emergence, Postemergence
In short: as §1

[7] = test system: common ragweed (Ambrosia elatior); settings: Ambrosia artemisiifolia, post-emergence, Postemergence
In short: as §1

[8] = test system: cocklebur (Xanthium strumarium); settings: Xanthium strumarium, post-emergence, Postemergence
In short: as §1

[9] = test system: pigweed (Amaranthus retroflexus); settings: Amaranthus retroflexus, post-emergence, Postemergence
In short: as §1

CCOC(=O)c1nc(C2CC2)nc(NN)c1Br [Compound 42]
50%: pest or weed control at 125 g/ha (kochia (Kochia scoparia); 125 g ai/ha, scale 0 to 100 (0 no effect, 100 complete control), read-out: Kochia plant response rating) | pest or weed control at 62 g/ha ([4]; 62 g ai/ha, scale 0 to 100 (0 no effect, 100 complete control), read-out: Morningglory plant response rating)
20%: pest or weed control at 250 g/ha ([1]; 250 g ai/ha, scale 0 to 100, read-out: Plant response rating, Velvetleaf) | pest or weed control at 250 g/ha ([8]; 250 g ai/ha, scale 0 to 100, read-out: Plant response rating, Cocklebur) | pest or weed control at 125 g/ha ([9]; 125 g ai/ha, scale 0 to 100 (0 no effect, 100 complete control), read-out: Pigweed plant response rating)
85%: pest or weed control at 250 g/ha (kochia (Kochia scoparia); 250 g ai/ha, scale 0 to 100, read-out: Plant response rating, Kochia) | pest or weed control at 250 g/ha ([4]; 250 g ai/ha, scale 0 to 100, read-out: Plant response rating, Morningglory)
30%: pest or weed control at 62 g/ha (kochia (Kochia scoparia); 62 g ai/ha, scale 0 to 100 (0 no effect, 100 complete control), read-out: Kochia plant response rating) | pest or weed control at 250 g/ha ([9]; 250 g ai/ha, scale 0 to 100, read-out: Plant response rating, Pigweed)
5%: pest or weed control at 31 g/ha (kochia (Kochia scoparia); 31 g ai/ha, read-out: Plant response rating (scale of 0 to 100), Kochia) | pest or weed control at 250 g/ha ([3]; 250 g ai/ha, scale 0 to 100, read-out: Plant response rating, Cupgrass, Woolly) | pest or weed control at 125 g/ha ([8]; 125 g ai/ha, scale 0 to 100 (0 no effect, 100 complete control), read-out: Cocklebur plant response rating)
0%: pest or weed control at 31 g/ha ([1]; 31 g ai/ha, read-out: Plant response rating (scale of 0 to 100), Velvetleaf) | pest or weed control at 62 g/ha ([1]; 62 g ai/ha, scale 0 to 100 (0 no effect, 100 complete control), read-out: Velvetleaf plant response rating) | pest or weed control at 125 g/ha ([1]; 125 g ai/ha, scale 0 to 100 (0 no effect, 100 complete control), read-out: Velvetleaf plant response rating) | pest or weed control at 31 g/ha ([2]; 31 g ai/ha, read-out: Plant response rating (scale of 0 to 100), Crabgrass) | pest or weed control at 62 g/ha ([2]; 62 g ai/ha, scale 0 to 100 (0 no effect, 100 complete control), read-out: Crabgrass plant response rating) | pest or weed control at 125 g/ha ([2]; 125 g ai/ha, scale 0 to 100 (0 no effect, 100 complete control), read-out: Crabgrass plant response rating) | pest or weed control at 250 g/ha ([2]; 250 g ai/ha, scale 0 to 100, read-out: Plant response rating, Crabgrass) | pest or weed control at 31 g/ha ([3]; 31 g ai/ha, read-out: Plant response rating (scale of 0 to 100), Cupgrass, Woolly) | pest or weed control at 62 g/ha ([3]; 62 g ai/ha, scale 0 to 100 (0 no effect, 100 complete control), read-out: Cupgrass, Woolly plant response rating) | pest or weed control at 125 g/ha ([3]; 125 g ai/ha, scale 0 to 100 (0 no effect, 100 complete control), read-out: Cupgrass, Woolly plant response rating) | pest or weed control at 31 g/ha ([4]; 31 g ai/ha, read-out: Plant response rating (scale of 0 to 100), Morningglory) | pest or weed control at 125 g/ha ([5]; 125 g ai/ha, scale 0 to 100 (0 no effect, 100 complete control), read-out: Foxtail, Giant plant response rating) | pest or weed control at 31 g/ha ([5]; 31 g ai/ha, read-out: Plant response rating (scale of 0 to 100), Foxtail, Giant) | pest or weed control at 62 g/ha ([5]; 62 g ai/ha, scale 0 to 100 (0 no effect, 100 complete control), read-out: Foxtail, Giant plant response rating) | pest or weed control at 250 g/ha ([5]; 250 g ai/ha, scale 0 to 100, read-out: Plant response rating, Foxtail, Giant) | pest or weed control at 31 g/ha ([6]; 31 g ai/ha, read-out: Plant response rating (scale of 0 to 100), Nutsedge, Yellow) | pest or weed control at 62 g/ha ([6]; 62 g ai/ha, scale 0 to 100 (0 no effect, 100 complete control), read-out: Nutsedge, Yellow plant response rating) | pest or weed control at 125 g/ha ([6]; 125 g ai/ha, scale 0 to 100 (0 no effect, 100 complete control), read-out: Nutsedge, Yellow plant response rating) | pest or weed control at 250 g/ha ([6]; 250 g ai/ha, scale 0 to 100, read-out: Plant response rating, Nutsedge, Yellow) | pest or weed control at 31 g/ha ([7]; 31 g ai/ha, read-out: Plant response rating (scale of 0 to 100), Ragweed) | pest or weed control at 31 g/ha ([8]; 31 g ai/ha, read-out: Plant response rating (scale of 0 to 100), Cocklebur) | pest or weed control at 62 g/ha ([8]; 62 g ai/ha, scale 0 to 100 (0 no effect, 100 complete control), read-out: Cocklebur plant response rating)
80%: pest or weed control at 125 g/ha ([4]; 125 g ai/ha, scale 0 to 100 (0 no effect, 100 complete control), read-out: Morningglory plant response rating)
10%: pest or weed control at 62 g/ha ([7]; 62 g ai/ha, scale 0 to 100 (0 no effect, 100 complete control), read-out: Ragweed plant response rating) | pest or weed control at 31 g/ha ([9]; 31 g ai/ha, read-out: Plant response rating (scale of 0 to 100), Pigweed) | pest or weed control at 62 g/ha ([9]; 62 g ai/ha, scale 0 to 100 (0 no effect, 100 complete control), read-out: Pigweed plant response rating)
40%: pest or weed control at 125 g/ha ([7]; 125 g ai/ha, scale 0 to 100 (0 no effect, 100 complete control), read-out: Ragweed plant response rating) | pest or weed control at 250 g/ha ([7]; 250 g ai/ha, scale 0 to 100, read-out: Plant response rating, Ragweed)
